Measured values from article PMC9883482, “TPX2 enhances the transcription factor activation of PXR and enhances the resistance of hepatocellular carcinoma cells to antitumor drugs” (Cell Death & Disease, 2023).
Read-outs that look alike come from different tables or passages of the source.

How the values were obtained:
[1] = Sorafenib metabolism/clearance in cultured cells, LC-MS/MS; type: in vitro ADME; conditions: human
Experimental: After incubation with sorafenib was complete, the medium containing sorafenib was discarded and replaced with normal DMEM + FBS for continuous cultures. Cell samples were collected at each time point starting at 0 (when the cell samples were collected immediately after the incubation step/baseline) followed by 4, 8, 12, 24, and 48 h.
For sorafenib-treated samples in cellular experiments, sorafenib processing and extraction of the samples were performed. HCC cell samples were re-suspended in PBS after which the organic solvent acetonitrile at a ratio of 1:1 was added. The samples were then crushed and extracted for about 30 min with vortex shaking. After that step, the samples were centrifuged at 12,000 rpm at 4 °C for about 15 to 20 min. At this time, the samples were separated into cell debris, organic, and water phases. The collected organic phase contained the sample of sorafenib in acetonitrile.
(§1) S transition pair was detected using LC–MS/MS: (1) the parent ion was 465 Da and (2) the product ion was 252 Da.
(§2) All statistical analyses in the presence work were performed using the GraphPad 8.0 (GraphPad Software Corporation, Armonk, NY, USA). […] For the survival analysis data, the survival curves were analyzed by the log-rank (Mantel–Cox) test to detect the P-value of the survival curve, the median survival time, and the 95% confidence interval (CI). For the co-relationship analysis, the data were analyzed by linear regression to determine the overall trend of a group of data points. […] If the slope was positive, the horizontal coordinate was positively related to the vertical coordinate, and if the slope was negative, the horizontal coordinate was negatively related to the vertical coordinate. For the multi-grouped data, the ordinary one-way analysis of variance (ANOVA) and multiple comparison methods were used. An ANOVA was used to examine whether any difference between groups could be detected. The multiple comparisons (t-test) was used to detect differences between pairs of data.

[2] = Sorafenib metabolism/clearance in subcutaneous tumor tissues, LC-MS/MS; type: in vivo, nude mice; conditions: nude, mouse, read-out: t1/2 values (converted)
Experimental: (§3) For HCC subcutaneous tumor tissue, HCC cells were first cultured for transfection after which the cells were inoculated subcutaneously into nude mice to form tumor tissue. […] The HCC tumor tissues were collected at each time point described previously with the addition of 72 and 96 h.
(§4) During the extraction of sorafenib samples from HCC tissue samples, the tissue samples were shredded to form tissue micro-blocks and then ground with liquid nitrogen. The samples ground with liquid nitrogen were mixed with PBS and then mixed with the organic solvent acetonitrile at a ratio of 1:1. The samples were then crushed and extracted for about 30 min using vortex shaking. After that, the samples were centrifuged at 12,000 rpm and at 4 °C for about 15 to 20 min. At this time, the sample was separated into cell debris and organic and water phases.
as §1, §2

[3] = system: subcutaneous tumor tissue formed by MHCC97-L cells; assay: as above; type: in vivo, nude mice; conditions: MHCC97-L subcutaneous tumour tissues, control group (rifampicin experiment)
Experimental: as §3, §4, §1, §2

HepG2 cells = assay: MTT cell survival examination; type: cell-based; conditions: Homo sapiens, HepG2, 48 h
Experimental: (§5) In the process of dissolving these pure drug powders, stirring, vortexing, and ultrasonic vibration were used to assist dissolution [17, 18]. After a drug was fully dissolved, Dulbecco’s modified Eagle’s medium (DMEM) without fetal bovine serum (FBS) was used to dilute the drug dissolved in DMSO. For doxorubicin, we used DMEM without FBS to dissolve the drug. When performing cell viability experiments (tetrazolium [MTT] assays), these drugs were diluted.
(§6) The antitumor activity of antitumor drugs injuring HCC cells was examined by using MTT assay. After culturing the HCC cells, transfection experiments were performed, and the cells were then seeded in 96-well cell culture plates (about 8000 cells per well). […] After the cells were treated with the drug for about 48 h, a dose of […] tetrazolium (MTT) reagent was added, and cells with the MTT reagent were incubated for 5 to 6 h. After incubation with the MTT was complete, all liquid in the 96-well cell culture plate was discarded, and about 100 μl of DMSO was added to each well to dissolve the cell samples. During the process of lysing the cell samples, the cell culture plate was shaken for 15 minutes to completely lyse the cells. After the lysis step was complete, the cell culture plate was centrifuged at 12,000 rpm at 4 °C, and the supernatant was collected for evaluation.
as §2

MHCC97-H cells = assay: MTT cell survival examination; type: cell-based; conditions: Homo sapiens, MHCC97H, 48 h
Experimental: as §5, §6, §2

MHCC97-L cells = assay: MTT cell survival examination; type: cell-based; conditions: Homo sapiens, MHCC97L, 48 h, median (95% CI)
Experimental: as §5, §6, §2

[4] = Blood concentration assay of sorafenib, mice bearing MHCC97-L tumours; type: in vivo; conditions: nude, mouse, plasma, 2 mg/kg, 2 mg/kg oral
Experimental: Table notes: After overexpression of TPX2 in MHCC97-L cells, the cells were inoculated with nude mice to form subcutaneous tumour tissue (the volume of tumour tissue was approximately 1 g) and then given 2 mg/kg via oral administration. After overexpression of TPX2 in MHCC97-L cells, the cells were inoculated into nude mice to form subcutaneous tumour tissue and then in situ liver tumour tissue was established. 2mg/kg via oral administration was given to nude mice. Thereafter, blood levels of sorafenib were measured.

[5] = oral, Subcutaneous MHCC97-L Control tumour
[6] = oral, Subcutaneous MHCC97-L TPX2 tumour
[7] = po, intrahepatic MHCC97-L Control tumour
[8] = po, intrahepatic MHCC97-L TPX2 tumour

For `CNC(=O)c1cc(Oc2ccc(NC(=O)Nc3ccc(Cl)c(C(F)(F)F)c3)cc2)ccn1` [sorafenib], the half-life at 1 μmol/L ([1]; HepG2 cells, Control, median (95% CI), read-out: t1/2 values (converted)) was 18.9 h, the half-life at 1 μmol/L ([1]; HepG2 cells, TPX2 overexpression, median (95% CI), read-out: t1/2 values (converted)) was 13.7 h and the half-life at 1 μmol/L ([1]; HepG2 cells, siTPX2, read-out: t1/2 values (converted)) was > 24 h. It also gave a half-life at 1 μmol/L ([1]; MHCC97-H cells, Control, median (95% CI), read-out: t1/2 values (converted)) of 15.5 h, a half-life at 1 μmol/L ([1]; MHCC97-H cells, siTPX2, median (95% CI), read-out: t1/2 values (converted)) of 36.6 h and a half-life at 1 μmol/L ([1]; MHCC97-L cells, Control, median (95% CI), read-out: t1/2 values (converted)) of 18.7 h. It also gave a half-life at 1 μmol/L ([1]; MHCC97-L cells, TPX2 overexpression, median (95% CI), read-out: t1/2 values (converted)) of 11.9 h, a half-life ([2]; subcutaneous tumor tissue formed by HepG2 cells, Control, median (95% CI)) of 29.4 h and a half-life ([2]; subcutaneous tumor tissue formed by HepG2 cells, TPX2 overexpression, median (95% CI)) of 18.5 h. For the same compound, the half-life ([2]; subcutaneous tumor tissue formed by HepG2 cells, siTPX2, median (95% CI)) was 42.2 h, the half-life ([2]; subcutaneous tumor tissue formed by MHCC97-H cells, Control, median (95% CI)) was 19.7 h and the half-life ([2]; subcutaneous tumor tissue formed by MHCC97-H cells, siTPX2, median (95% CI)) was 27.5 h. It also gave a half-life ([2]; subcutaneous tumor tissue formed by MHCC97-L cells, MHCC97-L tumor tissues, Control, median (95% CI)) of 28.3 h, a half-life ([2]; subcutaneous tumor tissue formed by MHCC97-L cells, MHCC97-L tumor tissues, TPX2 overexpression, median (95% CI)) of 13.5 h and a half-life ([2]; subcutaneous tumor tissue formed by MHCC97-L cells, other: injected directly into the tumor tissue, MHCC97-L subcutaneous tumour tissues, TPX2 overexpression + rifampicin 5 mg/kg oral) of 11.4 h. The half-life ([2]; subcutaneous tumor tissue formed by MHCC97-L cells, other: injected directly into the tumor tissue, MHCC97-L subcutaneous tumour tissues, TPX2 overexpression group (rifampicin experiment)) was 14 h, the t1/2 values [3] was 29.70 [21.38–36.75] and the IC50 (HepG2 cells; HepG2, Control, median (95% CI)) was 1.27 µM. It also gave an IC50 (HepG2 cells; HepG2, TPX2 overexpression, median (95% CI)) of 4.68 µM, an IC50 (HepG2 cells; HepG2, siTPX2, median (95% CI)) of 0.5 µM and an IC50 (MHCC97-H cells; Control, median (95% CI)) of 1.16 µM. The IC50 (MHCC97-H cells; siTPX2, median (95% CI)) was 0.47 µM, the IC50 (MHCC97-L cells; Control) was 1.86 µM and the IC50 (MHCC97-L cells; TPX2 overexpression) was 4.84 µM. It also gave a concentration at 2 h [4, 5] of 17.4 ± 9.73 ng/mL, a concentration at 2 h [4, 6] of 13.9 ± 6.77 ng/mL and a concentration at 8 h [4, 5] of 142 ± 26.8 ng/mL. It also gave a concentration at 8 h [4, 6] of 122 ± 27.9 ng/mL, a concentration at 20 h [4, 5] of 112 ± 30.5 ng/mL and a concentration at 20 h [4, 6] of 99.8 ± 19.6 ng/mL. For the same compound, the concentration at 40 h [4, 5] was 44.4 ± 16.9 ng/mL, the concentration at 40 h [4, 6] was 29.6 ± 17.2 ng/mL and the concentration at 2 h [4, 7] was 17.9 ± 8.39 ng/mL. It also gave a concentration at 2 h [4, 8] of 18.1 ± 9.63 ng/mL, a concentration at 8 h [4, 7] of 138 ± 27.9 ng/mL and a concentration at 8 h [4, 8] of 144 ± 30 ng/mL. It also gave a concentration at 20 h [4, 7] of 117 ± 29.9 ng/mL, a concentration at 20 h [4, 8] of 115 ± 29.9 ng/mL and a concentration at 40 h [4, 7] of 51.6 ± 17.2 ng/mL. For the same compound, the concentration at 40 h [4, 8] was 41.4 ± 19.1 ng/mL.
